{
  "source": "patent US20140243403A1",
  "about": "“TREATING COLORECTAL, PANCREATIC, AND LUNG CANCER” (The General Hospital Corporation, priority 2011, published 2014)",
  "key": {"[1]": {"test_system": "KRAS mutant pancreatic ductal adenocarcinoma (PDAC) cells", "test": "Sensitivity of KRAS mutant PDAC cell lines", "format": "cell-based", "settings": "5 KRAS mutant PDAC cell lines, APC wild-type", "method": "(§1) (B) 5Z-7-oxozeaenol IC50 values for KRAS mutant PDAC and NSCLC cell lines.\n(§2) To determine if sensitivity to TAK1 inhibition is specific to colon cancer-derived cell lines, sensitivity to 5Z-7-oxozeaenol was assessed in 5 KRAS mutant pancreatic ductal adenocarcinoma (PDAC) and 4 non-small cell lung cancer (NSCLC) cells, all of which are APC wild-type (FIG. 9B)."}, "[2]": {"test_system": "non-small cell lung cancer (NSCLC) cells", "test": "Sensitivity of KRAS mutant NSCLC cell lines", "format": "cell-based", "settings": "4 NSCLC cell lines, APC wild-type", "method": "as §1, §2"}, "[3]": {"test_system": "threonine 172 phosphorylation of the AMP-activated kinase (p-AMPK)", "test": "AMPK threonine 172 phosphorylation, western blot", "format": "cell-based, human", "settings": "24 h", "method": "(B) Effects of TAK1 inhibition on apoptosis and signaling in a representative panel of KRAS-independent and KRAS-dependent cell lines, 24 h after treatment. PARP and caspase-3 cleavage are shown as indicators of apoptosis, and AMPK threonine 172 (T172) phosphorylation is shown as a downstream indicator of TAK1 signaling activity. GAPDH serves as a gel loading control.\nPharmacologic TAK1 inhibition triggered apoptosis in KRAS-dependent colon cancer cells, as measured by PARP and caspase-3 cleavage (FIG. 3B). […] Thus, low concentrations of 5Z-7-oxozeaenol, in the range of 0.625 to 1.25 μM, promote apoptosis selectively in KRAS-dependent colon cancer cells.\n(§3) The following antibodies were used for western blotting in the above examples: KRAS OP-24, Pan-Ras OP-40 (Calbiochem); PARP (BD Pharmigen, 4C10-5); BMP-7 (Abcam); phospho-ERK, Axin2, phospho Smad1 and total Smad1/5/8, phospho- and total AMPK, phospho- and total AKT, cleaved Caspase-3 (Cell Signaling); GAPDH (Chemicon); E-Cadherin, beta-catenin (BD Pharmigen) Syk, TAK1, total ERK1 (Santa Cruz). For secreted BMP-7 levels, 1×10^6 HT29 cells stably expressing ER-KRAS(12V) were plated in 10 cm dishes. 24 h post-plating, 10 ml serum-free DME/F12 medium (Gibco) was added. Conditioned media was collected 24 h post-induction of ER-KRAS(12V) with 4-HT and concentrated to […], using AMICON® Ultra-4 Centrifugal Filter Units with 3 kDa membranes. […]"}, "Wnt target gene Axin 2": {"test_system": "Wnt target gene Axin 2", "test": "Axin 2 protein expression, western blot", "format": "cell-based, human", "method": "(C) Protein expression levels of the Wnt target gene Axin 2 following treatment of cells with the indicated concentrations. GAPDH serves as a loading control.\nIn contrast, KRAS depletion had no effect in one KRAS-independent line (SW1463) and increased TOP-FLASH activity in another (LS174T). […] To define the effect of TAK1 signaling on a physiological Wnt target gene, protein expression levels of the endogenous Axin 2 gene (Lustig et al., 2002) were measured following treatment with 5Z-7-oxozeaenol. […] Thus, both KRAS and TAK1 suppression selectively suppress β-catenin-mediated transcription and Wnt target gene expression in KRAS-dependent cells.\nas §3"}, "[4]": {"test_system": "HT29 cells expressing mutant NRAS", "test": "Sensitivity of HT29 cells expressing mutant NRAS", "format": "cell-based, human", "settings": "HT29 cells with ectopic mutant NRAS", "from_the_text": "(D) Forced overexpression of epitope-tagged oncogenic G12V mutated RAS protein isoforms in HT29 cells and sensitivity to TAK1 pharmacological inhibition with 5Z-7-oxozeaenol. Expression levels of exogenous and endogenous Ras proteins are shown by immunoblotting with a pan-ras monoclonal antibody. NRAS/KRAS4B are HA-tagged and KRAS4A is V5-tagged.\nThese cell lines are insensitive to 5Z-7-oxozeaenol."}, "[5]": {"test_system": "HT29 vector control cells", "test": "Sensitivity of HT29 vector control cells", "format": "cell-based, human", "method": "(E) Introduction of a V5-tagged constitutively activated (CA) mutant of the BMP receptor, BMPR1A (Q233D) or control vector in HT29 cells and effects on 5Z-7-oxozeaenol sensitivity in terms of IC50 values.\nTo determine whether TAK1-independent cells could be driven toward TAK1 dependency by enhanced KRAS/Wnt signaling, a series of reconstitution experiments was performed. HT29, SW620 or SKCO1 cells were infected with recombinant lentiviruses encoding either BMPR1A-CA and CTNNB1-CA or vector control (containing the ccDB gene). For BMPR1A-CA stable expression, cells were selected in 5 μg/mlBlasticidin for 7 days and pooled clones were established. Stable expression was verified using the V5 epitope tag on the BMPR1A transgene product. For CTNNB1-CA, the pWPI recombinant lentiviruses encode GFP driven by IRES. Thus, stable cell clones were obtaining by FACS live cell sorting to obtain the top 10% of GFP expressing cells. The SW620-CTNNB1-CA stable cell clones were passaged 1:5 every 2 days and assayed for KRAS dependency after the fifth passage.\nTo further define the role of BMP signaling in TAK1 dependency, a constitutively-activated (CA) variant (Q233D) of BMPR1A (Zou et al., 1997) was ectopically expressed in HT29 cells. […] This was accompanied by dose-dependent decreases in Axin 2 and phosphorylated Smad2 levels. […]"}},
  "data": [
    {"compound": "COc1cc(O)c2c(c1)/C=C/C[C@H](O)[C@H](O)C(=O)/C=C\\C[C@H](C)OC2=O", "note": "[5Z-7-oxozeaenol]", "values": [
      {"measurement": "sensitivity to 5Z-7-oxozeaenol", "setting": "[1]", "result": "largely refractory"},
      {"measurement": "sensitivity to 5Z-7-oxozeaenol", "setting": "[2]", "result": "largely refractory"},
      {"measurement": "threonine 172 phosphorylation of AMPK (p-AMPK)", "setting": "[3]; KRAS-dependent colon cancer cells", "result": "reduced"},
      {"measurement": "AMPK phosphorylation", "setting": "[3]; KRAS-independent cells", "result": "unaffected"},
      {"measurement": "Axin 2 expression", "setting": "Wnt target gene Axin 2; KRAS-dependent cells", "result": "dose-dependent reduction"},
      {"measurement": "Axin 2 expression, dose-dependent reduction", "setting": "Wnt target gene Axin 2; KRAS-independent cells", "result": "not"},
      {"measurement": "change in sensitivity to 5Z-7-oxozeaenol", "setting": "[4]", "result": "slightly increased resistance"},
      {"measurement": "IC50", "setting": "[5]", "result": 7.7, "unit": "µM"}
    ]}
  ]
}
